Results taken from patent US4863941A, “Glycerol derivatives” (Hoffmann-La Roche Inc., priority 1985, dated 1989).

test system: aggregation of the blood platelets brought about by PAF; assay: inhibition of PAF-triggered platelet aggregation in platelet-rich plasma (PRP), aggregometer; type: cell-based; conditions: Oryctolagus cuniculus, rabbit PRP, 37° C., sub-maximum dosage of PAF (4 nM), test substance added 2 minutes before PAF
Description: Platelet-rich plasma (PRP) is prepared by centrifugation of rabbit blood containing 1/10 volumes of 90 mM trisodium citrate. The aggregation of the blood platelets is measured with the aid of an aggregometer at 37° C. while stirring. 2 minutes after the addition of the test sub- stance to the PRP the platelet aggregation is triggered off by a sub-maximum dosage of PAF (4 nM). The IC50 value (μM) given in the following Table corresponds to that concentration of the test substance which reduces to a half the aggregation of the blood platelets brought about by PAF.

`CCCCCCCCCCCCCCCCCC(=O)OCC(COC(=O)CCC[N+](C)(C)C)NC(C)=O` (racemic) [Example 1, [3-[[(RS)-2-acetamido-3-[octadecanoyloxy]propoxy]carbonyl]propyl]trimethylammonium chloride] was tested. Which IC50 did it give?
Its IC50 is 5500 nM.

How did the IC50 turn out when `CCCCCCCCCCCCCCCCCCNC(=O)OCC(COC(=O)CCC[N+](C)(C)C)NC(=O)OC` (racemic) [Example 2, [3-[[(RS)-2-(1-methoxyformamido)-3-(octadecylcarbamoyloxy)propoxy]carbonyl]propyl]trimethylammonium chloride] was run?
Its IC50 is 1800 nM.

Which IC50 does the source give for `CCCCCCCCCCCCCCCCCCOCC(COC(=O)OCC[N+]1(C)CCCCC1)OC` (racemic) [Example 3, 1-[2-[[[(RS)-2-methoxy-3-(octadecyloxy)propoxy]carbonyl]oxy]ethyl]-1-methylpiperidinium chloride] here?
Its IC50 is 4000 nM.

Which IC50 does the source give for `CCCCCCCCCCCCCCCCCCOC(=O)NCC(COC(=O)CCC[N+](C)(C)C)OC(=O)NC` (racemic) [Example 4, [3-[[(RS)-2-Methylcarbamoyloxy-3-[1-(octadecyloxy)formamido]propoxy]carbonyl]propyl]trimethylammonium chloride] here?
The IC50 was 1800 nM.

`CCCCCCCCCCCCCCCCCCOC(=O)N(CC(COCCCC[n+]1ccsc1)OC(=O)NC)C(C)C` (racemic) [Example 5, 3-[4-[(RS)-3-[N-isopropyl-1-(octadecyloxy)formamido]-2-[(methylcarbamoyl)oxy]-propoxy]butyl]thiazolium bromide] was tested. Which IC50 did it give?
Its IC50 is 40 nM.

With `CCCCCCCCCCCCCCCCCCOC(=O)N(CC(COCCCC[N+](C)(C)C)OC(=O)NC)C(C)C` (racemic) [Example 6, [4-[(RS)-3-[N-isopropyl(1-octadecyloxy)formamido]-2-[(methylcarbamoyl)oxy]propoxy]butyl]trimethylammonium bromide] as the compound, how does the IC50 read?
The IC50 was 500 nM.

With `CCCCCCCCCCCCCCCCCCNC(=O)N(CC(COCCCC[n+]1ccsc1)OC(=O)NC)C(C)C` (racemic) [Example 7, 3-[4-[(RS)-3-(1-isopropyl-3-octadecylureido)-2-[(methylcarbamoyl)oxy]propoxy]butyl]thiazolium bromide] as the compound, how does the IC50 read?
The IC50 was 50 nM.

For `CCCCCCCCCCCCCCCCCCNC(=O)N(CC(COCCCCn1cc[n+](C)c1)OC(=O)NC)C(C)C` (racemic) [Example 8, 1-[4-[(RS)-3-(1-isopropyl-3-octadecylureido)-2-[(methylcarbamoyl)oxy]propoxy]butyl]-3-methylimidazolium bromide], which IC50 is on record?
The IC50 was 400 nM.

Which IC50 does the source give for `CCCCCCCCCCCCCCCCCCOC(=O)N(CC(COCCCC[n+]1ccsc1)OC(=O)OC)C(C)C` (racemic) [Example 9, 3-[4-(RS)-3-(N-isopropyl-1-octadecyloxyformamido)-2-(methoxycarbonyloxy)propoxy]butyl]thiazolium bromide] here?
Its IC50 is 60 nM.
